Target: 26S proteasome non-ATPase regulatory subunit 14 (Homo sapiens, UniProt O00487)
Test: inhibition of proteasome subunit RPN11 – biochemical, fluorescence polarization, uHTS hits, confirmation (AID 602368)

Chain of 26S proteasome non-ATPase regulatory subunit 14 (O00487 whole entry): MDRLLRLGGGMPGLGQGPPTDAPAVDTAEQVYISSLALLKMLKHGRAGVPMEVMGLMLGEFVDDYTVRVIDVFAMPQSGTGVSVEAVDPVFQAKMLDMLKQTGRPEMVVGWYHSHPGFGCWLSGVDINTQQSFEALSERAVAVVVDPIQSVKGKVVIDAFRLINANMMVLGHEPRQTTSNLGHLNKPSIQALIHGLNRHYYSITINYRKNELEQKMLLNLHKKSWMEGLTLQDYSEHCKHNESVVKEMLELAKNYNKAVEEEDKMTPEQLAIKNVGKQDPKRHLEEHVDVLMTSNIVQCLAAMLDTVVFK

Row | Structure (SMILES) | IC50 [µM]
1 | CCOC(=O)C1C(=O)C(=Cc2ccc(-c3ccccc3C(=O)O)o2)SC1=Nc1ccc(OC)cc1 (stereo not given) | 17.8
2 | COc1cc2c3c(c1)C(C)=CC(C)(C)N3C(=O)C2=O [MLS000688351] | 8.23
3 | Cc1[nH]c2ccccc2c1/C=C1\N=C(c2ccccc2)OC1=O [(4Z)-4-[(2-methyl-1H-indol-3-yl)methylidene]-2-phenyl-5-oxazolone] | 4.18
4 | O=C1C=CC([N+](=O)[O-])=CC1C=NN=C1NS(=O)(=O)c2ccccc21 (stereo not given) | 34.9
5 | CC(c1sc(S)nc1O)c1sc(S)nc1O [5-[1-(4-oxidanylidene-2-sulfanylidene-1,3-thiazolidin-5-yl)ethyl]-2-sulfanylidene-1,3-thiazolidin-4-one] | 45.4
6 | Oc1csc(=S)n1N=Cc1ccc(Cl)s1 [3-[(5-chlorothiophen-2-yl)methylideneamino]-2-sulfanylidene-1,3-thiazolidin-4-one] | 59.4
7 | COc1cc(C=c2[nH]c3n(c2=O)CCCCC=3)ccc1O [SMR000149996] | 14.8
8 | COC1=CC(=Cc2c(C)[nH]n(-c3cccc(Br)c3)c2=O)C=C(OC)C1=O | 23.1
9 | COC1=CC([N+](=O)[O-])=CC(/C=N/NC(=O)c2cc(-c3ccccc3)nc3ccccc23)C1=O (stereo not given) | 22.3
10 | O=[N+]([O-])c1ccc(N=NCc2c[nH]c3ccccc23)cc1 [MLS000573812] | 1.77
11 | CC1(C)CC(=O)C(=CNCC2CCN(C(=O)Cc3ccccc3)CC2)C(=O)C1 [5,5-dimethyl-2-[[[1-(2-phenylacetyl)piperidin-4-yl]methylamino]methylidene]cyclohexane-1,3-dione] | > 100
12 | O=C(N/N=C/C1C=C(Cl)C=C([N+](=O)[O-])C1=O)c1ccccc1NS(=O)(=O)c1cccs1 (stereo not given) [SMR000364876] | 10.4
13 | O=[N+]([O-])c1ccc(N=NCc2cccn2-c2ccccc2)nc1 [SMR000161089] | 23.5
14 | CCN(CC)CCOC(=O)c1ccc(N=CC(C#N)c2nc(-c3ccc4c(c3)OCO4)cs2)cc1 (stereo not given) [2-(diethylamino)ethyl 4-[[(Z)-2-[4-(1,3-benzodioxol-5-yl)-1,3-thiazol-2-yl]-2-cyano-ethenyl]amino]benzoate] | 31.4
15 | C=C(C=C(C)c1sc(S)nc1O)c1sc(S)nc1O [MLS000723803] | 43.6
16 | O=c1c(Cl)c(N=NCc2ccc(Br)cc2)cnn1-c1ccccc1 | 21.2
17 | CC(=O)C1C(=O)OC(=CC=Cc2ccccc2)C1=O (stereo not given) [3-acetyl-5-cinnamylidene-4-hydroxy-2-furanone] | 35.2
18 | COc1cc(C=CC(=O)C2C(=O)NC(=O)N(CCc3ccccc3)C2=O)ccc1O (stereo not given) [SMR000221203] | 29.2

Row | Structure (SMILES) | IC50 [µM]
19 | CC[n+]1c(CC=Nc2ccccc2)oc2ccc(OC)cc21 | 23.2
20 | CSc1nsc(CC=Nc2ccc(C(=O)O)cc2)c1C#N [4-({2-[4-cyano-3-(methylsulfanyl)-5-isothiazolyl]vinyl}amino)benzenecarboxylic acid] | 24.8
21 | CN(CCO)c1ccc(CN=Nc2ccc([N+](=O)[O-])cc2S(=O)(=O)Nc2ccccc2C(=O)O)cc1 | 37
22 | CC1=NC(=O)NC(c2ccc(N3CCOCC3)cc2)C1C(=O)c1ccccc1 (stereo not given) [5-benzoyl-6-methyl-4-[4-(4-morpholinyl)phenyl]-3,4-dihydro-1H-pyrimidin-2-one] | 17.1
23 | C=c1[nH]n(-c2nnc(C)c(=O)[nH]2)c(=O)c1=Cc1ccc(N(CC)CC)cc1 [3-{4-[1-(4-Diethylamino-phenyl)-meth-(Z)-ylidene]-3-methyl-5-oxo-4,5-dihydro-pyrazol-1-yl}-6-methyl-4H -[1,2,4]triazin-5-one] | 49.4
24 | C=CCN1C(=O)C(/C=N/c2cccc([N+](=O)[O-])c2)C(=O)N(CCCC)C1=O (stereo not given) [MLS000543529] | 34
25 | CCN(CC)CCOC(=O)c1ccc(N=CC(C#N)c2nc(-c3ccc(OC)c(OC)c3)cs2)cc1 (stereo not given) [SMR000434079] | 23.2
26 | O=C1c2ccccc2SC1/C=N/c1cc([N+](=O)[O-])ccc1O (stereo not given) [(2Z)-2-[[(5-nitro-2-oxidanyl-phenyl)amino]methylidene]-1-benzothiophen-3-one] | 3.28
27 | C=c1[nH]c2ccc(C)cc2c1=Cc1c(N)n2oc(C)cc2nc1=O [MLS000730959] | 33.3
28 | O=[N+]([O-])c1ccc(N=NCc2ccc[nH]2)cc1 [MLS000595102] | 8.96
29 | COC1=CC([N+](=O)[O-])=CC(/C=N/NC(=O)c2cncc(Br)c2)C1=O (stereo not given) [5-bromo-N'-[(E)-(5-methoxy-3-nitro-6-oxo-1-cyclohexa-2,4-dienylidene)methyl]-3-pyridinecarbohydrazide] | 49.5
30 | Cc1[nH]n(-c2ccccc2)c(=O)c1C=C1NC(=S)NC1=O [5-methyl-4-[(Z)-(5-oxo-2-sulfanylideneimidazolidin-4-ylidene)methyl]-2-phenyl-4H-pyrazol-3-one] | 32.4
31 | NS(=O)(=O)c1ccc(N=CCC(=O)c2ccc3ccccc3c2)cc1 [4-(3-Naphthalen-2-yl-3-oxo-propenylamino)-benzenesulfonamide] | 28.6
32 | CCCCCCCCCCCC1N=C(N)N=C(CCCO)C1C(=O)OC (stereo not given) [SMR001565729] | 19.9
33 | O=C(N/N=C/C1C=C([N+](=O)[O-])C=CC1=O)c1cc(-c2ccccc2)nc2ccccc12 (stereo not given) [N'-[(E)-(3-nitro-6-oxo-1-cyclohexa-2,4-dienylidene)methyl]-2-phenyl-4-quinolinecarbohydrazide] | 14.8
34 | O=C1N=C(Nc2ccc(Cl)cc2Cl)SC1=Cc1c[nH]c2ccccc12 | 36.5
35 | Cc1cc(=O)[nH]c(N=NCc2c(O)n(-c3ccccc3)c(=O)c3ccccc23)n1 [SMR000221270] | 18.4
